Results published in EP1560558B1, “USE OF 3-POSITION CYCLOSPORIN DERIVATIVES FOR HAIR GROWTH” (LG Household & Health Care Ltd., priority 2002, dated 2010).

system: Female C57BL/6 mice; assay: Test for hair growth promoting effect (hair regrowth on shaved back of mice, topical application); assay type: in vivo; settings: female C57BL/6 mice 6 to 7 weeks, hair-removed back, 100 µl (conc. 0.1% w/v) once a day for 30 days, visual approach; vehicle control 40
Description: Test Example: Test for hair growth promoting effect of cyclosporin derivatives of the invention
Female C57BL/6 mice of ages 6 to 7 weeks were utilized. After removing hairs on the middle of the back with an electric shaver, the mice were weighed and randomly assigned to the test groups with an even distribution of weights. The mice were given one day for adaptation. […] The results were determined by visual approach, in terms of degrees of hair regrowth. With respect to respective hair-removed areas, rates of new hair growth were examined and compared.

Compound	Area rate of hair regrowth (%)
C/C=C/C[C@@H](C)[C@@H](O)[C@H]1C(=O)N[C@@H](CC)C(=O)N(C)[C@H](SCC)C(=O)N(C)[C@@H](CC(C)C)C(=O)N[C@@H](C(C)C)C(=O)N(C)[C@@H](CC(C)C)C(=O)N[C@@H](C)C(=O)N[C@H](C)C(=O)N(C)[C@@H](CC(C)C)C(=O)N(C)[C@@H](CC(C)C)C(=O)N(C)[C@@H](C(C)C)C(=O)N1C [Compound 1, [D-2-ethylthio-sar^3]cyclosporin A]	90%
C/C=C/C[C@@H](C)[C@@H](O)[C@H]1C(=O)N[C@@H](CC)C(=O)N(C)[C@H](SCCC)C(=O)N(C)[C@@H](CC(C)C)C(=O)N[C@@H](C(C)C)C(=O)N(C)[C@@H](CC(C)C)C(=O)N[C@@H](C)C(=O)N[C@H](C)C(=O)N(C)[C@@H](CC(C)C)C(=O)N(C)[C@@H](CC(C)C)C(=O)N(C)[C@@H](C(C)C)C(=O)N1C [Compound 2, [D-2-propylthio-sar^3] cyclosporin A]	92%
C/C=C/C[C@@H](C)[C@@H](O)[C@H]1C(=O)N[C@@H](CC)C(=O)N(C)[C@H](SC(C)C)C(=O)N(C)[C@@H](CC(C)C)C(=O)N[C@@H](C(C)C)C(=O)N(C)[C@@H](CC(C)C)C(=O)N[C@@H](C)C(=O)N[C@H](C)C(=O)N(C)[C@@H](CC(C)C)C(=O)N(C)[C@@H](CC(C)C)C(=O)N(C)[C@@H](C(C)C)C(=O)N1C [Compound 3, [D-2-isopropylthio-sarl^3] cyclosporin A]	85%
C=CCS[C@@H]1C(=O)N(C)[C@@H](CC(C)C)C(=O)N[C@@H](C(C)C)C(=O)N(C)[C@@H](CC(C)C)C(=O)N[C@@H](C)C(=O)N[C@H](C)C(=O)N(C)[C@@H](CC(C)C)C(=O)N(C)[C@@H](CC(C)C)C(=O)N(C)[C@@H](C(C)C)C(=O)N(C)[C@@H]([C@H](O)[C@H](C)C/C=C/C)C(=O)N[C@@H](CC)C(=O)N1C [Compound 4, [D-2-allylthio-sar^3] cyclosporin A]	90%
C/C=C/C[C@@H](C)[C@@H](O)[C@H]1C(=O)N[C@@H](CC)C(=O)N(C)[C@H](SCc2ccccc2)C(=O)N(C)[C@@H](CC(C)C)C(=O)N[C@@H](C(C)C)C(=O)N(C)[C@@H](CC(C)C)C(=O)N[C@@H](C)C(=O)N[C@H](C)C(=O)N(C)[C@@H](CC(C)C)C(=O)N(C)[C@@H](CC(C)C)C(=O)N(C)[C@@H](C(C)C)C(=O)N1C [Compound 5, [D-2-benzylthio-sar^3] cyclosporin A]	90%
C/C=C/C[C@@H](C)[C@@H](O)[C@H]1C(=O)N[C@@H](CC)C(=O)N(C)[C@H](Sc2ccc([N+](=O)[O-])cc2)C(=O)N(C)[C@@H](CC(C)C)C(=O)N[C@@H](C(C)C)C(=O)N(C)[C@@H](CC(C)C)C(=O)N[C@@H](C)C(=O)N[C@H](C)C(=O)N(C)[C@@H](CC(C)C)C(=O)N(C)[C@@H](CC(C)C)C(=O)N(C)[C@@H](C(C)C)C(=O)N1C [Compound 6, [D-2-(4-nitrophenyl)thio-sar^3] cyclosporin A]	89%
[D-2-(dimethylthiocarbamyl)dithio-sar^3] cyclosporin A [Compound 7]	85%

system: mouse's back; assay: not given; settings: comparative experiments on mouse's back, relative to minoxidil; cited from earlier work

Compound	hair regrowth effect, times superior to minoxidil
cyclosporin	about 100 times
